This is an account of results in patent US5260451A, “Substituted pyrrole compounds and use thereof in pharmaceutical compositions” (priority 1989, dated 1993).

Type in all cases: cell-based
Experiment [1] has as its target T1, 5-lipoxygenase (Bos taurus, UniProt F1MQ78).
T1 construct: The source for 5-lipoxygenase were bovine granulocytes; endogenous in cells; host or cells: granulocytes isolated from EDTA-anticoagulated bovine blood
T1 sequence (F1MQ78 1-674): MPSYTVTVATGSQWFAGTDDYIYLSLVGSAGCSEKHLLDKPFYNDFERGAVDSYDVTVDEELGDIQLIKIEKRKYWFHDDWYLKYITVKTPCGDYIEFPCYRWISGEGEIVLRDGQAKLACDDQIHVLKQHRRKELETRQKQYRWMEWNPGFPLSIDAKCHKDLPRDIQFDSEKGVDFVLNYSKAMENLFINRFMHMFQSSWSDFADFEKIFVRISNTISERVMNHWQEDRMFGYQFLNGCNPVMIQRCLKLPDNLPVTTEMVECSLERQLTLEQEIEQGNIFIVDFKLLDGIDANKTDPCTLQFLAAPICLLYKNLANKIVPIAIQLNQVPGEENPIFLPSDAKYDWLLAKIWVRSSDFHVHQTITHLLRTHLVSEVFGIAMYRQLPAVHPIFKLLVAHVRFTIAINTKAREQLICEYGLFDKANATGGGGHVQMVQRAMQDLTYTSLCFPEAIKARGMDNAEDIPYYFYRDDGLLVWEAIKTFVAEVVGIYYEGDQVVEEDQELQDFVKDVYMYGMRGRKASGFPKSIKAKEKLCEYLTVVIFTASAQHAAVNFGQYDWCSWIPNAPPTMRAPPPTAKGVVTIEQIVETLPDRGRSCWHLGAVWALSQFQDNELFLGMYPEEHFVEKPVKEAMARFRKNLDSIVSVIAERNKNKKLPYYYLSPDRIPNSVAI
As to the kind of experiment: inhibition of 5-lipoxygenase (LTB4 formed by calcium-ionophore stimulated bovine granulocytes). As for the experimental part: The effectiveness of the compounds of the invention can be determined by means of the inhibition of 5-lipoxygenase or of cyclo-oxygenase. The research was carried out as follows: The source for 5-lipoxygenase were bovine granulocytes which can form leucotrienes just as human granulocytes do. By stimulation with calcium-ionophore (see BIOCHEM. BIOPHYS. ACTA 1984, 795, pp 499-503), mainly LTC4 (leucotriene C4) and LTB4 (leucotriene B4) are formed from endogenous arachidonic acid. The isolation of the granulocytes and the implementation of the enzyme reaction are conventional (see BIOCHEM. BIOPHYS. ACTA 1984, 795 pp 499-503). The blood protected against clotting by EDTA first is centrifuged for that purposed and the thrombotic excess is removed. Following lysis of the erythrocytes with water the lymphocytes and monocytes are separated from the granulocytes by means of a Ficoll gradient. The granulocytes are set to a specific cell number. The enzyme reaction is then begun in the presence or absence of the test substances following the addition of Ca^2+ with calcium ionophore. The synthesis of the leucotrienes is stopped after 5 minutes by adding a mixture of methanol and acetonitrile containing PGB2 as the internal standard and NDGA as the anti-oxidant. Next the samples are diluted in water and processed in the manner described in J. CHROMATOGR. […], 378, pp 208-214. LTB4 is measured at the absorption maximum at 270 nm. The arachidonic acid metabolites are observed present in this research in approximately quantitative manner. Tables 1 and 2 list the test results for the compounds of the invention, The test substances were at concentrations of 10 μM.

In experiment [2] the target is T2, cyclo-oxygenase (Bos taurus, UniProt O62664).
T2 construct: formed by bovine thrombocytes following addition of calcium ionophore; endogenous in cells; host or cells: thrombocytes isolated from the supernatant of centrifuged bovine blood
T2 sequence (O62664 25-600): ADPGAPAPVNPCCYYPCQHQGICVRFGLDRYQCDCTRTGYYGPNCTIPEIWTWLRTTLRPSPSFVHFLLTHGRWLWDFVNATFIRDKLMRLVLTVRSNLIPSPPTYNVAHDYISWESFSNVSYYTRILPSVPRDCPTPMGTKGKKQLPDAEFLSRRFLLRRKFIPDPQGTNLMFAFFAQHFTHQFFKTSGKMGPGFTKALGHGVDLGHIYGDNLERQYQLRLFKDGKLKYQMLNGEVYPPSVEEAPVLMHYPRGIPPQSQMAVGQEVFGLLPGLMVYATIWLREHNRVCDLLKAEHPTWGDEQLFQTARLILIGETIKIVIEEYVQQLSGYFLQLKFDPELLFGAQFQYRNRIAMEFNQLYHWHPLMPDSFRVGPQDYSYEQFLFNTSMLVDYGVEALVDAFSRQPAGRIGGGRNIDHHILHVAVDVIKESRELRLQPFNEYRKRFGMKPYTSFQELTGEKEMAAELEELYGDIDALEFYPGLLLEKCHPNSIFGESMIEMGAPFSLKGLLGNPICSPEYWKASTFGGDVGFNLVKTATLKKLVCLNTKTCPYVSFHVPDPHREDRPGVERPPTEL
As to the kind of experiment: inhibition of cyclo-oxygenase (12-HHT or prostaglandin E2 formed by calcium-ionophore stimulated bovine thrombocytes). Particulars: Table 1, read-out: INHIBITION % Cyclooxygenase. As for the experimental part: The effectiveness of the compounds of the invention can be determined by means of the inhibition of 5-lipoxygenase or of cyclo-oxygenase. The research was carried out as follows:
In this test the 12-HHT amount of 12-hydroxyheptadecatriene acid or prostaglandin E2 amount formed by bovine thrombocytes following addition of calcium ionophore is determined by uv detection following HPLC separation. Following centrifuging of the bovine blood, the thrombocytes are isolated from the surnatant. The enzyme reaction and the isolation of the formed metabolites take place as when determining the 5-lipoxygenase inhibition, however the incubation time was one minute. The detection of 12 HHT following HPLC separation takes place at 232 nm.
Tables 1 and 2 list the test results for the compounds of the invention, The test substances were at concentrations of 10 μM.

Experiment [3] deals with T1, 5-lipoxygenase. Briefly: inhibition of 5-lipoxygenase (LTB4 formed by calcium-ionophore stimulated bovine granulocytes). The following applies: Table 1, 3,3 μM.

In the case of `CC1(C)Cc2c(C=CC(=O)O)c(-c3ccccc3)c(-c3ccccc3)n2C1` [CHCHCO2 H, Phenyl, Phenyl, CH3, CH3], the inhibition at 10 µM in experiment [1] (Table 1) is 91%. `CCCCCn1c(C)c(-c2ccccc2)c(-c2ccccc2)c1CCC(=O)O`: the inhibition at 10 µM in experiment [1] (Table 2) amounted to 99%.

For `CC1(C)Cc2c(CCCCCC(=O)O)c(-c3ccccc3)c(-c3ccccc3)n2C1` [(CH2)5 CO2 H, Phenyl, Phenyl, CH3, CH3], in experiment [1] (Table 1), the inhibition at 10 µM is 96%.

Regarding `COc1ccc(-c2c(-c3ccccc3)c3n(c2CCC(=O)O)CCC3)cc1`, the inhibition at 10 µM in experiment [1] (Table 1) came out at 91%.

On to `CCCCCCn1c(C)c(-c2ccccc2)c(-c2ccccc2)c1CCC(=O)O`, for which, in experiment [1] (Table 2), the inhibition at 10 µM stood at 99%. On to `CCCCCCc1c(-c2ccccc2)c2n(c1C=CC(=O)O)CCC2` [Phenyl, C6 H13, CHCHCO2 H, H, H, 3-(6-(n-HEXYL)-7-PHENYL-2,3-DIHYDRO-1h-PYRROLIZINE-5-YL)-ACRYLIC ACID], for which the inhibition at 10 µM in experiment [1] (Table 1) came to 82%. In the case of `Cc1c(-c2ccccc2)c(-c2ccccc2)c(CCC(=O)O)n1CC(C)(C)C`, in experiment [1] (Table 2), the inhibition at 10 µM amounted to 97%.

As for `O=C(O)CCc1c(-c2ccc(Cl)cc2)c(-c2ccccc2)c2n1CCC2`, in experiment [1] (Table 1), the inhibition at 10 µM was found to be 98%. Same read-out and setting: to `O=C(O)CCCCCc1c(-c2ccccc2)c(-c2ccccc2)n2c1CCC2` [(CH2)5 CO2 H, Phenyl, Phenyl, H, H] belongs 86%; to `O=C(O)CCCCc1c(-c2ccccc2)c2n(c1-c1ccccc1)CCC2` [Phenyl, (CH2)4 CO2 H, Phenyl, H, H], 82%. Consider `O=C(O)Cc1c(-c2ccccc2)c(-c2ccccc2)c2n1CCC2` [Phenyl, Phenyl, CH2 CO2 H, H, H], for which the inhibition at 10 µM in experiment [2] worked out at 91%. `O=C(O)CCCCCc1c(-c2ccccc2)c2n(c1-c1ccccc1)CCC2` [Phenyl, (CH2)5 CO2 H, Phenyl, H, H]: the inhibition at 10 µM in experiment [1] (Table 1) is 80%. Still for that read-out and setting: to `CC1(C)Cc2c(CCC(=O)O)c(-c3ccccc3)c(-c3ccccc3)n2C1` [(CH2)2 CO2 H, Phenyl, Phenyl, CH3, CH3] belongs 93%.

As for `CCCCn1c(C)c(-c2ccccc2)c(-c2ccccc2)c1CCC(=O)O`, the inhibition at 10 µM in experiment [1] (Table 2) amounted to 94%. Turning to `CC1(C)Cc2c(-c3ccccc3)c(-c3ccccc3)c(CC(=O)O)n2C1` [Phenyl, Phenyl, CH2 CO2 H, CH3, CH3, (2,2-dimethyl-6,7-diphenyl-2,3-dihydro-1H-pyrrolizine-5-yl)-acetic acid], the inhibition at 10 µM amounted to 94% in experiment [1] (Table 1) and 99% in experiment [2].

As for `CC1(C)Cc2c(-c3ccccc3)c(-c3ccc(Oc4ccccc4)cc3)c(CCC(=O)O)n2C1` [3-(2,2-dimethyl-6-(4-phenoxyphenyl)-7-phenyl-2,3-dihydro-1H-pyrrolizine-5-yl) propionic acid], the inhibition at 3 µM in experiment [3] came out at 98%. Regarding `O=C(O)CCc1c(-c2cccc3ccccc23)c(-c2ccccc2)c2n1CCC2` [Phenyl, α-naphthyl, (CH2)2 CO2 H, H, H], in experiment [1] (Table 1), the inhibition at 10 µM is 94%. As to `CC1(C)Cc2c(-c3ccccc3)c(-c3ccccc3)c(CCC(=O)O)n2C1` [Phenyl, Phenyl, (CH2)2 CO2 H, CH3, CH3], the inhibition at 10 µM in experiment [1] (Table 1) is 91%; in experiment [2], 97%. For the compound `Cc1ccc(-c2c(-c3ccccc3)c3n(c2CCC(=O)O)CCC3)cc1` [Phenyl, p-Tolyl, (CH2)2 CO2 H, H, H], in experiment [1] (Table 1), the inhibition at 10 µM came to 92%. As for `O=C(O)CCCCc1c(-c2ccccc2)c(-c2ccccc2)n2c1CCC2` [(CH2)4 CO2 H, Phenyl, Phenyl, H, H], the inhibition at 10 µM in experiment [1] (Table 1) is 86%.

Consider `O=C(O)/C=C/c1c(-c2ccccc2)c(-c2ccccc2)c2n1CCC2` [Phenyl, Phenyl, CHCHCO2 H, H, H], for which, in experiment [1] (Table 1), the inhibition at 10 µM came out at 80%. Regarding `O=C(O)CCc1c(-c2ccc(Oc3ccccc3)cc2)c(-c2ccccc2)c2n1CCC2`, the inhibition at 10 µM in experiment [1] (Table 1) stood at 98%; in experiment [2] it was 70%. Consider `O=C(O)CCc1c(-c2cccc(Cl)c2)c(-c2ccccc2)c2n1CCC2`, for which the inhibition at 10 µM in experiment [1] (Table 1) amounted to 89%.
